Measurements taken from EP2050748A1, “Novel fused pyrimidines” (Bayer Schering Pharma Aktiengesellschaft, priority 2007, dated 2009).

Key:
[1] = tested on: phosphorylated Akt protein (Ser473); experiment: Cellular PI3K / Akt pathway assay (phospho-Akt ELISA); type: cell-based; settings: Homo sapiens; MCF7 cells, stimulated with ß-Heregulin (20ng/ml), compound incubated 48h, phospho-Akt1 (Ser473) ELISA
Experimental: In order to study the cellular activity of the compounds according to the present invention, an Enzyme Linked Immunosorbent Assay (ELISA)-based assay has been used specific phospho-AKT. The assay is based on a Sandwich ELISA kit (PathScan™ Phospho-Akt1 (Ser473); Cell Signaling, USA; #7160).
The ELISA Kit detects endogenous levels of phosphorylated Akt protein. A phospho-Akt (Ser473) antibody (Cell Signaling, USA; #9271) has been coated onto the microwells. After incubation with cell lysates, the coated antibody captures the phosphorylated Akt protein. Following extensive washing, Akt1 monoclonal antibody (Cell Signaling, USA; #2967) is added to detect the captured phospho-Akt1 protein. HRP-linked anti-mouse antibody (HRP: horseradish peroxidase; Cell Signaling, USA; #7076) is then used to recognize the bound detection antibody. HRP substrate (= 3,3',5,5'-tetramethylbenzidine (TMB); Cell Signaling, USA; #7160) is added to develop colour. The magnitude of optical density for this developed color is proportional to the quantity of phosphorylated Akt protein.
MCF7 cells (ATCC HTB-22) are seeded into 96 well fate bottom plates at a density of 10000 cells/well. 24 hours after seeding, the cells are serum starved using low-serum medium (IMEM media including 0,1% charcoal treated FCS (FCS: fetal calf serum)). After 24 hours 1 µl each of the compound dilutions (test compounds were dissolved as 10 mM solutions in dimethylsulfoxide (DMSO) and subsequently diluted) are added into each well of the 96 well plates and incubated for 48h at 37°C in a humidified athmosphere containing 5% CO2. To stimulate Akt phosphorylation, ß-Heregulin (20ng/ml β-HRG) is added in parallel to the compounds. Wells containing unstimulated control cells (no β-Heregulin stimulation) are incubated with or without the diluted compound. Wells containing untreated control cells (no compound) are filled with medium containing 0.5% v:v DMSO and are or are not stimulated with β-Heregulin.
Cells are harvested and lysed with brief sonification in 1x x cell lysis buffer (20mM Tris (pH7.5), 150 mM NaCl, 1 mM ethylene diaminetetraacetate (EDTA), 1 mM ethylene glycolbis(2-aminoethyl)-N,N,N',N'-tetraacetic acid (EGTA), 1vol% Triton X-100, 2.5mM sodium pyrophosphate, 1 mM β-glycerolphosphate, 1 mM Na3VO4, 1 µg/ml leupeptin). The lysate is centrifuged for 10 min. at 4°C and the supernatant is transferred to a new tube. 100 µl of sample diluent (0.1vol% Tween-20, 0.1vol% sodium azide in phosphate buffered saline (PBS)) are added to a microcentrifuge tube and 100 µl of cell lysate are transferred into the tube and vortexed. 100 µl of each diluted cell lysate are added to the appropriate ELISA well, and incubated overnight at 4°C. The plates are washed 4 times with 1 x wash buffer (1 vol% tween-20, 0.33vol% thymol, in PBS). Next 100 µl of detection antibody (Akt1 (2H10) monoclonal detection antibody; Cell Signaling, USA; #2967) are added to each well and incubation continued for 1 h at 37°C. The washing procedure is repeated between each step. 100µl of secondary antibody (anti-mouse IgG HRP-linked antibody; Cell Signaling, USA; #7076) are added to each well and incubated for 30 min. at 37°C. Than, 100µl of TMB substrate (0.05% 3,3',5,5' tetramethylbenzidine, 0.1 % hydrogen peroxide, complex polypeptides in a buffered solution; Cell Signaling, USA; #7160) are added to each well and incubated for 30 min. at 25°C. Finally 100 µl of STOP solution (0.05vol% α and β unsaturated carbonyl compound) are added to each well and the plate are shaked gently. The absorbance is measured at λ=450 nm (Wallac Victor2; Perkin Elmer, USA) within 30 min. after adding the STOP solution. The analysis of the data is performed using a statistical program (Excel; Microsoft, USA). Preferred compounds show an inhibitory activity towards Akt phosphorylation below 10µM.

[2] = tested on: OvCAR3 cells; experiment: Cellular proliferation / Cytotoxicity assay (Alamar Blue); type: cell-based; settings: Homo sapiens, OVCAR-3, 48h incubation, Alamar Blue (Resazurin) cell viability, read-out: Anti-proliferative / Cytotoxic activity (OvCAR3 cells)
Experimental: The anti-proliferative activity of the compounds as described herein, is evaluated using the OvCAR3, HCT116 and A549 cell lines and the Alamar Blue (Resazurin) cell viability assay (O'Brien et al. Eur J Biochem 267, 5421-5426, 2000). Resazurin is reduced to the fluorescent resorufin by cellular dehydrogenase activity, correlating with viable, proliferating cells. Test compounds are dissolved as 10 mM solutions in DMSO and subsequently diluted. Cells like HCT116 or A549 cells were seeded into 96 well flat bottom plates at a density of 10000 cells/well (OvCAR3 cells), 1000 cells/well (HCT116 cells) or 2000 cells/well (A549 cells) in a volume of 200 µl/well. 24 hours after seeding, 1 µl each of the compound dilutions are added into each well of the 96 well plates. Each compound dilution is tested as at least as duplicates. Wells containing untreated control cells were filled with 200 µl DMEM (Dulbecco's Modified Eagle Medium) containing 0.5vol% v:v DMSO. The cells are then incubated with the substances for 48h at 37°C in a humidified atmosphere containing 5vol% CO2. To determine the viability of the cells, 20 µl of a Resazurin solution (90mg / l) are added. After 4h incubation at 37°C, the fluorescence is measured by extinction at ? = 544 nm and an emission of ? = 590 nm (Wallac Victor2; Perkin Elmer, USA). For the calculation of the cell viability, the emission value from untreated cells is set as 100% viability and the fluorescence intensity of treated cells are set in relation to the values of untreated cells. Viabilities are expressed as % values. The corresponding IC50 values of the compounds for cytotoxic activity are determined from the concentration-effect curves by means of non-linear regression. The analysis of the data is performed using a biostatistical program (GraphPad Prism, USA). Representative IC50 values for anti-proliferative / cytotoxic potency determined in the aforementioned assay follow from the following table, in which the numbers of the compound correspond to the numbers of the examples.

IC50 [1] [nM] | SMILES | IC50 [2] [nM]
< 1000 | C#Cc1cnc2nc(-c3ccc(CN4CCC(c5n[nH]c(-c6ccccn6)n5)CC4)cc3)c(-c3ccccc3)cn12 [Example 13, 3-ethynyl-6-phenyl-7-(4-{[4-(5-pyridin-2-yl-1,2,4-triazol-3-yl)piperidin-1-yl]methyl}phenyl)imidazo[1,2-a]pyrimidine] | < 1000
< 1000 | N#Cc1cnc2nc(-c3ccc(CN4CCC(c5n[nH]c(-c6ccccn6)n5)CC4)cc3)c(-c3ccccc3)cn12 [Example 8, 6-phenyl-7-(4-{[4-(5-pyridin-2-yl-1,2,4-triazol-3-yl)piperidin-1-yl]methyl}phenyl)imidazo[1,2-a]pyrimidine-3-carbonitrile] | > 1000
< 1000 | CCc1cn2cc(-c3ccccc3)c(-c3ccc(CN4CCC(c5n[nH]c(-c6ccccn6)n5)CC4)cc3)nc2n1 [Example 17, 2-ethyl-6-phenyl-7-(4-{[4-(5-pyridin-2-yl-1,2,4-triazol-3-yl)piperidin-1-yl]methyl}phenyl)imidazo[1,2-a]pyrimidine] | < 1000
< 1000 | c1ccc(-c2cn3ccnc3nc2-c2ccc(CN3CCC(c4n[nH]c(-c5ccncc5)n4)CC3)cc2)cc1 [Example 6, 6-phenyl-7-(4-{[4-(5-pyridin-4-yl-1,2,4-triazol-3-yl)piperidin-1-yl]methyl}phenyl)imidazo[1,2-a]pyrimidine] | > 1000
1000 to 10000 | c1ccc(-c2cn3ccnc3nc2-c2ccc(CN3CCC(c4n[nH]c(-c5ncccn5)n4)CC3)cc2)cc1 [Example 18, 6-phenyl-7-(4-{[4-(5-pyrimidin-2-yl-1,2,4-triazol-3-yl)piperidin-1-yl]methyl}phenyl)imidazo[1,2-a]pyrimidine] | > 1000
< 1000 | c1ccc(-c2cn3nc(C4CCC4)nc3nc2-c2ccc(CN3CCC(c4n[nH]c(-c5ccccn5)n4)CC3)cc2)cc1 [Example 7, 2-cyclobutyl-6-phenyl-5-(4-{[4-(5-pyridin-2-yl-1,2,4-triazol-3-yl)piperidin-1-yl]methyl}phenyl)[1,2,4]triazolo[1,5-a]pyrimidine] | < 1000

More lines, now with the values behind:

SMILES | IC50 [1] [nM] | IC50 [2] [nM]
Cc1cnc2nc(-c3ccc(CN4CCC(c5n[nH]c(-c6ccccn6)n5)CC4)cc3)c(-c3ccccc3)cn12 [Example 14, 3-methyl-6-phenyl-7-(4-{[4-(5-pyridin-2-yl-1,2,4-triazol-3-yl)piperidin-1-yl]methyl}phenyl)imidazo[1,2-a]pyrimidine] | < 1000 | < 1000
Fc1cnc2nc(-c3ccc(CN4CCC(c5n[nH]c(-c6ccccn6)n5)CC4)cc3)c(-c3ccccc3)cn12 [Example 9, 3-fluoro-6-phenyl-7-(4-{[4-(5-pyridin-2-yl-1H-1,2,4-triazol-3-yl)piperidin-1-yl]methyl}phenyl)imidazo[1,2-a]pyrimidine] | < 1000 | < 1000
c1ccc(-c2cn3nccc3nc2-c2ccc(CN3CCC(c4n[nH]c(-c5ccccn5)n4)CC3)cc2)cc1 [Example 19, 6-phenyl-5-(4-{[4-(5-pyridin-2-yl-1,2,4-triazol-3-yl)piperidin-1-yl]methyl}phenyl)pyrazolo[1,5-a]pyrimidine] | < 1000 | < 1000
c1ccc(-c2cn3ccnc3nc2-c2ccc(CN3CCC(c4n[nH]c(-c5cnccn5)n4)CC3)cc2)cc1 [Example 21, 6-phenyl-7-(4-{[4-(5-pyrazin-2-yl-1,2,4-triazol-3-yl)piperidin-1-yl]methyl}phenyl)imidazo[1,2-a]pyrimidine] | < 1000 | > 1000
Cc1nc2nc(-c3ccc(CN4CCC(c5n[nH]c(-c6ccccn6)n5)CC4)cc3)c(-c3ccccc3)cn2n1 [Example 3, 2-methyl-6-phenyl-5-(4-{[4-(5-pyridin-2-yl-1,2,4-triazol-3-yl)piperidin-1-yl]methyl}phenyl)[1,2,4]triazolo[1,5-a]pyrimidine] | < 1000 | < 1000
c1ccc(-c2cn3ccnc3nc2-c2ccc(CN3CCC(n4cnc(-c5ccccn5)c4)CC3)cc2)cc1 [Example 20, 6-phenyl-7-(4-{[4-(4-pyridin-2-yl-imidazol-1-yl)piperidin-1-yl]methyl}phenyl)imidazo[1,2-a]pyrimidine] | < 1000 | > 1000
CNc1c(-c2ccccc2)c(-c2ccc(CN3CCC(c4n[nH]c(-c5ccccn5)n4)CC3)cc2)nc2nccn12 [Example 10, N-methyl-6-phenyl-7-(4-{[4-(5-pyridin-2-yl-1,2,4-triazol-3-yl)piperidin-1-yl]methyl}phenyl)imidazo[1,2-a]pyrimidin-5-amine] | 1000 to 10000 | > 1000
Brc1cnc2nc(-c3ccc(CN4CCC(c5n[nH]c(-c6ccccn6)n5)CC4)cc3)c(-c3ccccc3)cn12 [Example 11, 3-bromo-6-phenyl-7-(4-{[4-(5-pyridin-2-yl-1,2,4-triazol-3-yl)piperidin-1-yl]methyl}phenyl)imidazo[1,2-a]pyrimidine] | < 1000 | < 1000
CCc1cnc2nc(-c3ccc(CN4CCC(c5n[nH]c(-c6ccccn6)n5)CC4)cc3)c(-c3ccccc3)cn12 [Example 22, 3-ethyl-6-phenyl-7-(4-{[4-(5-pyridin-2-yl-1,2,4-triazol-3-yl)piperidin-1-yl]methyl}phenyl)imidazo[1,2-a]pyrimidine] | < 1000 | < 1000
c1ccc(-c2cn3ncnc3nc2-c2ccc(CN3CCC(c4n[nH]c(-c5ccccn5)n4)CC3)cc2)cc1 [Example 2, 6-phenyl-5-(4-([4-(5-pyridin-2-yl-1,2,4-triazol-3-yl)piperidin-1-yl]methyl}phenyl)[1,2,4]triazolo[1,5-a]pyrimidine] | < 1000 | > 1000
c1ccc(-c2cn3nc(C4CC4)nc3nc2-c2ccc(CN3CCC(c4n[nH]c(-c5ccccn5)n4)CC3)cc2)cc1 [Example 4, 2-cyclopropyl-6-phenyl-5-(4-{[4-(5-pyridin-2-yl-1,2,4-triazol-3-yl)piperidin-1-yl]methyl}phenyl)[1,2,4]triazolo[1,5-a]pyrimidine] | < 1000 | < 1000
